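Each compound was tested at five concentrations against cells in 96-well plates for 48 hours. GI50: concentration for 50% inhibition of growth. TGI: total growth inhibition.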
Tests used:
Test in all cases: NCI-60 cell line screen, 48 h
[1] = system: 786-0 renal
[2] = system: A498 renal
[3] = system: A549 NSCLC
[4] = system: ACHN renal
[5] = system: BT-549 breast
[6] = system: CAKI-1 renal
[7] = system: CCRF-CEM leukemia
[8] = system: COLO 205 colon
[9] = system: DU-145 prostate
[10] = system: EKVX NSCLC
[11] = system: HCC-2998 colon
[12] = system: HCT-116 colon
[13] = system: HCT-15 colon
[14] = system: HL-60(TB) leukemia
[15] = system: HOP-62 NSCLC
[16] = system: HOP-92 NSCLC
[17] = system: HS 578T breast
[18] = system: HT29 colon
[19] = system: IGROV1 ovarian
[20] = system: K-562 leukemia
[21] = system: KM12 colon
[22] = system: LOX IMVI melanoma
[23] = system: M14 melanoma
[24] = system: MALME-3M melanoma
[25] = system: MCF7 breast
[26] = system: MDA-MB-231 breast
[27] = system: MDA-MB-435
[28] = system: MOLT-4 leukemia
[29] = system: NCI-H226 lung
[30] = system: NCI-H23 lung
[31] = system: NCI-H460 lung
[32] = system: NCI-H522 lung
[33] = system: NCI/ADR-RES ovarian
[34] = system: OVCAR-3 ovarian
[35] = system: OVCAR-4 ovarian
[36] = system: OVCAR-5 ovarian
[37] = system: OVCAR-8 ovarian
[38] = system: PC-3 prostate
[39] = system: RPMI-8226 leukemia
[40] = system: RXF 393 renal
[41] = system: SF-268 CNS
[42] = system: SF-295 CNS
[43] = system: SF-539 CNS
[44] = system: SK-MEL-2 melanoma
[45] = system: SK-MEL-28 melanoma
[46] = system: SK-MEL-5 melanoma
[47] = system: SK-OV-3 ovarian
[48] = system: SN12C renal
[49] = system: SNB-19 CNS
[50] = system: SNB-75 CNS
[51] = system: SR leukemia
[52] = system: SW-620 colon
[53] = system: T-47D breast
[54] = system: TK-10 renal
[55] = system: U251 CNS
[56] = system: UACC-257 melanoma
[57] = system: UACC-62 melanoma
[58] = system: UO-31 renal

Molecule `COC(=O)c1c2c(c(C)[n+]([O-])c1C)C(=O)C(NCc1cccc(Cl)c1)=CC2=O` has a GI50 [1] of 2.65 µM, a TGI [1] of 13.9 µM and a GI50 [2] of 1.56 µM. The TGI [2] was 3.18 µM, the GI50 [3] was 1.94 µM and the TGI [3] was 6.17 µM. The GI50 [4] was 1.52 µM, the TGI [4] was 3.58 µM and the GI50 [5] was 1.54 µM. It also gave a TGI [5] of 3.07 µM, a GI50 [6] of 1.97 µM and a TGI [6] of 5.63 µM. It also gave a GI50 [7] of 2.29 µM, a TGI [7] of 8.53 µM and a GI50 [8] of 0.388 µM. For the same molecule, the TGI [8] was 1.55 µM, the GI50 [9] was 1.91 µM and the TGI [9] was 4.2 µM. It also gave a GI50 [10] of 1.51 µM, a TGI [10] of 3.61 µM and a GI50 [11] of 1.82 µM. The TGI [11] was 4.46 µM, the GI50 [12] was 0.679 µM and the TGI [12] was 4.9 µM. It also gave a GI50 [13] of 1.1 µM, a TGI [13] of 2.75 µM and a GI50 [14] of 0.628 µM. The TGI [14] was 3.55 µM, the GI50 [15] was 2.3 µM and the TGI [15] was 9.62 µM. The GI50 [16] was 2.22 µM, the TGI [16] was 4.54 µM and the GI50 [17] was 2.32 µM. The TGI [17] was 6.91 µM, the GI50 [18] was 0.634 µM and the TGI [18] was greater than 100 µM. The GI50 [19] was 1.17 µM, the TGI [19] was 2.98 µM and the GI50 [20] was 2.17 µM. It also gave a TGI [20] greater than 100 µM, a GI50 [21] of 1.56 µM and a TGI [21] of 9.73 µM. It also gave a GI50 [22] of 1.76 µM, a TGI [22] of 5.58 µM and a GI50 [23] of 1.06 µM. The TGI [23] was 2.4 µM, the GI50 [24] was 0.171 µM and the TGI [24] was 0.432 µM. For the same molecule, the GI50 [25] was 1.1 µM, the TGI [25] was 2.77 µM and the GI50 [26] was 1.18 µM. The TGI [26] was 4.88 µM, the GI50 [27] was 0.344 µM and the TGI [27] was 1.13 µM. It also gave a GI50 [28] of 2.01 µM, a TGI [28] of 5.68 µM and a GI50 [29] of 2.1 µM. The TGI [29] was 4.67 µM, the GI50 [30] was 1.23 µM and the TGI [30] was 3.25 µM. It also gave a GI50 [31] of 0.659 µM, a TGI [31] of 7.92 µM and a GI50 [32] of 1.91 µM. The TGI [32] was 4.62 µM, the GI50 [33] was 1.64 µM and the TGI [33] was 5.81 µM. For the same molecule, the GI50 [34] was 0.322 µM, the TGI [34] was 1.17 µM and the GI50 [35] was 0.507 µM. The TGI [35] was 1.85 µM, the GI50 [36] was 1.81 µM and the TGI [36] was 3.63 µM. For the same molecule, the GI50 [37] was 1.52 µM, the TGI [37] was 9.78 µM and the GI50 [38] was 1.62 µM. For the same molecule, the TGI [38] was 17.9 µM, the GI50 [39] was 2.14 µM and the TGI [39] was 7.81 µM. The GI50 [40] was 1.48 µM, the TGI [40] was 3.37 µM and the GI50 [41] was 2.53 µM. The TGI [41] was 12.9 µM, the GI50 [42] was 1.31 µM and the TGI [42] was 2.72 µM. The GI50 [43] was 1.8 µM, the TGI [43] was 3.26 µM and the GI50 [44] was 1.95 µM. For the same molecule, the TGI [44] was 4.6 µM, the GI50 [45] was 3.17 µM and the TGI [45] was 15 µM. For the same molecule, the GI50 [46] was 0.2 µM, the TGI [46] was 0.448 µM and the GI50 [47] was 3.05 µM. It also gave a TGI [47] of 12.8 µM, a GI50 [48] of 1.02 µM and a TGI [48] of 2.44 µM. It also gave a GI50 [49] of 2.45 µM, a TGI [49] of 7.8 µM and a GI50 [50] of 2.1 µM. For the same molecule, the TGI [50] was 5.07 µM, the GI50 [51] was 1.85 µM and the TGI [51] was greater than 100 µM. The GI50 [52] was 1.01 µM, the TGI [52] was 4.31 µM and the GI50 [53] was 1.69 µM. It also gave a TGI [53] of 4.41 µM, a GI50 [54] of 3.69 µM and a TGI [54] of 15.3 µM. The GI50 [55] was 2.1 µM, the TGI [55] was 7.52 µM and the GI50 [56] was 0.701 µM. The TGI [56] was 2.28 µM, the GI50 [57] was 1.24 µM and the TGI [57] was 2.84 µM. It also gave a GI50 [58] of 1.53 µM and a TGI [58] of 3.23 µM.

`COc1cccc(-n2ncc3c(N/N=C/c4ccc(F)cc4)ncnc32)c1` showed a GI50 [1] of 11.8 µM, a TGI [1] greater than 19.5 µM and a GI50 [2] greater than 16.1 µM. For the same molecule, the TGI [2] was greater than 25 µM, the GI50 [3] was 11.6 µM and the TGI [3] was greater than 25 µM. The GI50 [4] was greater than 25 µM, the TGI [4] was greater than 25 µM and the GI50 [5] was greater than 25 µM. It also gave a TGI [5] greater than 25 µM, a GI50 [6] greater than 18.7 µM and a TGI [6] greater than 25 µM. For the same molecule, the GI50 [7] was greater than 25 µM, the TGI [7] was greater than 25 µM and the GI50 [8] was greater than 25 µM. It also gave a TGI [8] greater than 25 µM, a GI50 [9] of 17.4 µM and a TGI [9] greater than 25 µM. The GI50 [10] was greater than 25 µM, the TGI [10] was greater than 25 µM and the GI50 [11] was greater than 25 µM. It also gave a TGI [11] greater than 25 µM, a GI50 [12] of 10.2 µM and a TGI [12] greater than 25 µM. The GI50 [13] was greater than 25 µM, the TGI [13] was greater than 25 µM and the GI50 [14] was greater than 25 µM. It also gave a TGI [14] greater than 25 µM, a GI50 [15] of 16.7 µM and a TGI [15] greater than 25 µM. It also gave a GI50 [16] of 6.48 µM, a TGI [16] of 19.9 µM and a GI50 [17] of 7.51 µM. The TGI [17] was 22.1 µM, the GI50 [18] was greater than 25 µM and the TGI [18] was greater than 25 µM. It also gave a GI50 [19] greater than 25 µM, a TGI [19] greater than 25 µM and a GI50 [20] greater than 25 µM. It also gave a TGI [20] greater than 25 µM, a GI50 [21] of 18.4 µM and a TGI [21] greater than 25 µM. It also gave a GI50 [22] greater than 25 µM, a TGI [22] greater than 25 µM and a GI50 [23] greater than 23.6 µM. For the same molecule, the TGI [23] was greater than 25 µM, the GI50 [24] was 11.3 µM and the TGI [24] was greater than 25 µM. For the same molecule, the GI50 [25] was greater than 17 µM, the TGI [25] was greater than 25 µM and the GI50 [26] was 8.59 µM. It also gave a TGI [26] greater than 25 µM, a GI50 [27] of 14.5 µM and a TGI [27] greater than 25 µM. The GI50 [28] was greater than 25 µM, the TGI [28] was greater than 25 µM and the GI50 [29] was greater than 25 µM. The TGI [29] was greater than 25 µM, the GI50 [30] was greater than 20.1 µM and the TGI [30] was greater than 25 µM. The GI50 [31] was 10.3 µM, the TGI [31] was 24.7 µM and the GI50 [32] was greater than 19.1 µM. The TGI [32] was greater than 25 µM, the GI50 [33] was 14.2 µM and the TGI [33] was greater than 25 µM. For the same molecule, the GI50 [34] was 5.27 µM, the TGI [34] was 10.3 µM and the GI50 [35] was 6.55 µM. It also gave a TGI [35] of 14.5 µM, a GI50 [36] greater than 25 µM and a TGI [36] greater than 25 µM. It also gave a GI50 [37] of 14.8 µM, a TGI [37] greater than 25 µM and a GI50 [38] greater than 25 µM. It also gave a TGI [38] greater than 25 µM, a GI50 [39] greater than 25 µM and a TGI [39] greater than 25 µM. It also gave a GI50 [40] of 10.6 µM, a TGI [40] of 24.9 µM and a GI50 [41] greater than 25 µM. For the same molecule, the TGI [41] was greater than 25 µM, the GI50 [42] was greater than 25 µM and the TGI [42] was greater than 25 µM. The GI50 [43] was 13.9 µM, the TGI [43] was greater than 25 µM and the GI50 [44] was greater than 25 µM. The TGI [44] was greater than 25 µM, the GI50 [45] was greater than 25 µM and the TGI [45] was greater than 25 µM. For the same molecule, the GI50 [46] was 14.7 µM, the TGI [46] was greater than 25 µM and the GI50 [47] was 13.6 µM. The TGI [47] was greater than 25 µM, the GI50 [48] was 23 µM and the TGI [48] was greater than 25 µM. It also gave a GI50 [49] of 24.5 µM, a TGI [49] greater than 25 µM and a GI50 [50] of 5.98 µM. The TGI [50] was greater than 18.6 µM, the GI50 [51] was greater than 25 µM and the TGI [51] was greater than 25 µM. It also gave a GI50 [52] of 24.3 µM, a TGI [52] greater than 25 µM and a GI50 [53] of 11.6 µM. For the same molecule, the TGI [53] was greater than 25 µM, the GI50 [54] was 12.4 µM and the TGI [54] was greater than 23.3 µM. For the same molecule, the GI50 [55] was 8.81 µM, the TGI [55] was greater than 21.9 µM and the GI50 [56] was greater than 25 µM. It also gave a TGI [56] greater than 25 µM, a GI50 [57] greater than 25 µM and a TGI [57] greater than 25 µM. The GI50 [58] was greater than 14.6 µM and the TGI [58] was greater than 25 µM.
